Measured values reported in ChEMBL document CHEMBL1128350, “Design and evaluation of nonpeptide fibrinogen gamma-chain based GPIIb/IIIa antagonists” (J Med Chem, 1995).
Peptide text beside a SMILES is read from it.

Tests used:
[1] = target: T1, Integrin alpha-IIb/beta-3 (Homo sapiens, UniProt P05106+P08514); experiment: Inhibition of biotinylated fibrinogen binding to isolated alpha IIb beta-3 integrin; format: protein-complex assay
Target sequence in this assay (P05106 27-788 limits assumed): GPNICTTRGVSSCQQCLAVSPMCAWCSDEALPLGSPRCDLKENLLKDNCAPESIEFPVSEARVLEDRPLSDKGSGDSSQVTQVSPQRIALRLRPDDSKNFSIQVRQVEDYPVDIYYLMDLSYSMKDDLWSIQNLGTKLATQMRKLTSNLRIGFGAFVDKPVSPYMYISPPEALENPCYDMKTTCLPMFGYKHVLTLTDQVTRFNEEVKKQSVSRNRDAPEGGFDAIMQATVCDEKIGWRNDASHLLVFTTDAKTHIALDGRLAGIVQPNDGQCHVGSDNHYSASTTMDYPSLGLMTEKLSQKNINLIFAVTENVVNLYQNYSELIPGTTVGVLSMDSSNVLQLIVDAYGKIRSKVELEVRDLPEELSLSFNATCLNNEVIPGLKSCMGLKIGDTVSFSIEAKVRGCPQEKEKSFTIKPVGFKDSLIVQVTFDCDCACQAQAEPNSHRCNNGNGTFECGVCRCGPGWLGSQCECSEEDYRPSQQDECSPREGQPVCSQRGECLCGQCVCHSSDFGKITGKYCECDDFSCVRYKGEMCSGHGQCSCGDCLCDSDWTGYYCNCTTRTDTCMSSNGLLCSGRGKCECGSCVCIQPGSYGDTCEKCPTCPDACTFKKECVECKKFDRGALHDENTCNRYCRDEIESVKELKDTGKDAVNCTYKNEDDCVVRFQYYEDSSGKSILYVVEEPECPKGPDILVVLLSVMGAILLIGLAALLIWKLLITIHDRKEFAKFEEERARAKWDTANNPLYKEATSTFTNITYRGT
Target sequence in this assay (P08514 32-887 limits assumed): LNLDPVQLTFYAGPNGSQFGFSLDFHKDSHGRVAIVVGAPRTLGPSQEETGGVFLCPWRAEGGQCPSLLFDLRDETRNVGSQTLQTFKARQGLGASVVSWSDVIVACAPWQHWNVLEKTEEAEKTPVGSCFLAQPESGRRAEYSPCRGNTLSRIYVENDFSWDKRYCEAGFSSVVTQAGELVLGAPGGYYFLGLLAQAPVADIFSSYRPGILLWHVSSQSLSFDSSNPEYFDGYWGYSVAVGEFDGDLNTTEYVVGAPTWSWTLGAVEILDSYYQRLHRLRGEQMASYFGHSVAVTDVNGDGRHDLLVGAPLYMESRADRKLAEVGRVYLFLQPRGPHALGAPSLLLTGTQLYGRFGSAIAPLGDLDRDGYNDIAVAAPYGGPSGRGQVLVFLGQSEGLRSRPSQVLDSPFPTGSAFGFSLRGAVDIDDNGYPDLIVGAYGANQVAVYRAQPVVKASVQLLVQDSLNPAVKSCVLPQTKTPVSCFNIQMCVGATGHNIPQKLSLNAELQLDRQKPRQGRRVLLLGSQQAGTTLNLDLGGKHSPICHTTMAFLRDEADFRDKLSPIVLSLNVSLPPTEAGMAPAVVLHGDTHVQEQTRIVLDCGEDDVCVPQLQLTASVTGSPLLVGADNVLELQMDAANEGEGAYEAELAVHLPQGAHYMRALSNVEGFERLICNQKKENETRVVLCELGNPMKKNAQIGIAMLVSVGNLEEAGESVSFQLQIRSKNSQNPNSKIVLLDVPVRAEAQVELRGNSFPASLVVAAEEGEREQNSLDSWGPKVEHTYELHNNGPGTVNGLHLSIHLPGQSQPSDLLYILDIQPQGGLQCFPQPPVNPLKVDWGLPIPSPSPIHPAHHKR
Target sequence in this assay (P08514 891-1039 limits assumed): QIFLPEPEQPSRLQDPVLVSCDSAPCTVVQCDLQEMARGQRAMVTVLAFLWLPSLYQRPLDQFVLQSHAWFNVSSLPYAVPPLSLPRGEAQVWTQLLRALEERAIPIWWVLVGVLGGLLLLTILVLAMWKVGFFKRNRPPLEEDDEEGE

Homo sapiens [2] = species on record: Homo sapiens; experiment: Inhibition (at 50 uM) of thrombin-induced platelet aggregation; format: functional
Homo sapiens [3] = species on record: Homo sapiens; experiment: Inhibition (at 10 uM) of thrombin-induced platelet aggregation; format: functional
Homo sapiens [4] = species on record: Homo sapiens; experiment: Percent inhibition of thrombin-induced platelet aggregation at 50 uM.; format: functional
[5] = target: T1, Integrin alpha-IIb/beta-3; experiment: (§1) Inhibition of fibrinogen binding to isolated integrin alphaIIb-beta3 at 50 uM.; format: protein-complex assay
Homo sapiens [6] = species on record: Homo sapiens; experiment: Compound was tested for inhibition of thrombin-induced platelet aggregation at the 1.0 uM Conc.; format: functional
[7] = Percent inhibition of thrombin-induced platelet aggregation at the Conc. of 0.1 uM.
Homo sapiens [8] = species on record: Homo sapiens; experiment: Inhibition of collagen-induced platelet aggregation […].; format: functional
Homo sapiens [9] = species on record: Homo sapiens; experiment: Percent inhibition of thrombin-induced platelet aggregation at 20 uM.; format: functional
[10] = Percent inhibition of thrombin-induced platelet aggregation at the Conc. of 0.1 uM.; remark: listed apart in the source
[11] = target: T1, Integrin alpha-IIb/beta-3; experiment: as §1; format: protein-complex assay; remark: listed apart in the source
Target sequence in this assay (P05106 27-788 limits assumed): as the sequence (P05106 27-788 limits assumed) above
Target sequence in this assay (P08514 32-887 limits assumed): as the sequence (P08514 32-887 limits assumed) above
Target sequence in this assay (P08514 891-1039 limits assumed): as the sequence (P08514 891-1039 limits assumed) above

Row | Compound | IC50 [1] | inhibition at 50 µM (Homo sapiens [2]) | inhibition at 10 µM (Homo sapiens [3]) | also measured
1 | CC(=O)N[C@H](CCCCN)C(=O)N1CCCC(C(=O)NCC(=O)O)C1 (some centres undefined) | – | 4% | – | inhibition at 50 µM [1]: 24%
2 | CC(C)NCCCC[C@@H](NC(=O)OC(C)(C)C)C(=O)N1CCCC(C(=O)NCCC(=O)O)C1 (some centres undefined) | – | 4% | 6% | inhibition at 5 µM [1]: 20%
3 | COC(=O)CNC12CC3CC(C1)CC(NC(=O)C(CCCCN)NC(=O)OCC1c4ccccc4-c4ccccc41)(C3)C2 (centres undefined) | – | – | – | inhibition at 50 µM (Homo sapiens [4]): 25%; inhibition [5]: 1%
4 | CC(C)(C)OC(=O)N[C@@H](CCCCN)C(=O)N1CCCC(C(=O)NCCCC(=O)O)C1 (some centres undefined) | – | 43% | 7% | –
5 | CC(=O)N[C@@H](CCCCN)C(=O)N1CCCC(C(=O)NCCC(=O)O)C1 (some centres undefined) | 340 nM | 87% | 67% | –
6 | CC(C)(C)OC(=O)NC(CCCCN)C(=O)NC12CC3CC(CC(NCC(=O)O)(C3)C1)C2 (centres undefined) | – | – | – | inhibition at 20 µM (Homo sapiens [9]): 40%
7 | CC(C)(C)OC(=O)N[C@@H](CCCCN)C(=O)N1CCC[C@@H](C(=O)NCCC(=O)O)C1 | 8 nM | 91% | 87% | inhibition at 1 µM (Homo sapiens [6]): 45%; inhibition at 0.1 µM [10]: 2%; IC50 (Homo sapiens [8]): 220 nM
8 | O=C(O)CNC12CC3CC(C1)CC(NC(=O)CCC1CCNCC1)(C3)C2 | – | – | – | inhibition at 50 µM (Homo sapiens [4]): 5%; inhibition [5]: 49%
9 | NCCCCCC(=O)N1CCCC(C(=O)NCCC(=O)O)C1 (centres undefined) | – | 88% | 87% | inhibition at 1 µM (Homo sapiens [6]): 29%
10 | CC(=O)N[C@H](CCCCN)C(=O)N1CCCC(C(=O)NCCC(=O)O)C1 (some centres undefined) | 74 nM | 88% | 30% | inhibition at 1 µM (Homo sapiens [6]): 4%
11 | CC(C)(C)OC(=O)N[C@@H](CCCCN)C(=O)N1CCCC(C(=O)NCC(=O)O)C1 (some centres undefined) | 50000 nM | 24% | 7% | –
12 | C[C@H](NC(=O)OCC1c2ccccc2-c2ccccc21)C(=O)N[C@@H](CCCCN)C(=O)NC12CC3CC(CC(NCC(=O)O)(C3)C1)C2 | – | – | – | inhibition at 50 µM (Homo sapiens [4]): 37%; inhibition [5]: 42%
13 | NCCCCCC(=O)N1CCCC(CNCCC(=O)O)C1 (centres undefined) | – | 63% | 24% | –
14 | CC(C)(C)OC(=O)NC(CCCN=C(N)N)C(=O)NC12CC3CC(CC(NCC(=O)O)(C3)C1)C2 (centres undefined) | – | – | – | inhibition at 50 µM (Homo sapiens [4]): 9%; inhibition [5]: 28%
15 | NCCCCC(NC(=O)OCc1ccccc1)C(=O)NC12CC3CC(C1)CC(N(CC(=O)O)C(=O)COc1ccccc1)(C3)C2 (centres undefined) | – | – | – | inhibition at 50 µM (Homo sapiens [4]): 2%; inhibition [5]: 33%
16 | NCCCC[C@H](N)C(=O)N1CCCC(C(=O)NCCC(=O)O)C1 (some centres undefined) | 760 nM | 87% | 48% | inhibition at 1 µM (Homo sapiens [6]): 0%
17 | CC(C)NCCCCC(NC(=O)OC(C)(C)C)C(=O)NC12CC3CC(CC(NCC(=O)O)(C3)C1)C2 (centres undefined) | – | – | – | inhibition at 50 µM (Homo sapiens [4]): 3%; IC50 [11]: 29.9 µM
18 | CC(C)(C)OC(=O)N[C@H](CCCCN)C(=O)N1CCCC(C(=O)NCCCC(=O)O)C1 (some centres undefined) | – | 0% | 0% | inhibition at 50 µM [1]: 59%
19 | COC(=O)CC(NC(=O)CNC12CC3CC(C1)CC(NC(=O)C(CCCCN)NC(=O)OCC1c4ccccc4-c4ccccc41)(C3)C2)C(=O)NC(C(=O)OC)C(C)C (centres undefined) | – | – | – | inhibition at 50 µM (Homo sapiens [4]): 15%; inhibition [5]: 0%
20 | CC(C)(C)OC(=O)N[C@H](CCCCN)C(=O)N1CCCC(C(=O)NCCC(=O)O)C1 (some centres undefined) | 740 nM | 45% | 12% | –
21 | NCCCCC(NC(=O)OCc1ccccc1)C(=O)NC12CC3CC(CC(NCC(=O)O)(C3)C1)C2 (centres undefined) | – | – | – | inhibition at 50 µM (Homo sapiens [4]): 24%; inhibition [5]: 26%

Further lines, with some results ahead:

Row | IC50 [1] | Compound | inhibition at 50 µM (Homo sapiens [2]) | inhibition at 10 µM (Homo sapiens [3]) | also measured
22 | 2700 nM | CC(C)(C)OC(=O)N[C@H](CCCN=C(N)N)C(=O)N1CCCC(C(=O)NCCC(=O)O)C1 (some centres undefined) | 17% | 0% | –
23 | 4100 nM | H-HHLGGAKQAGDV-OH | – | – | –
24 | 2600 nM | NCCCC[C@@H](N)C(=O)N1CCCC(C(=O)NCCC(=O)O)C1 (some centres undefined) | 8% | 1% | –
25 | 1000 nM | N=C(N)NCCC[C@H](N)C(=O)NCC(=O)N[C@@H](CC(=O)O)C(=O)N[C@@H](CS)C(=O)O (H-RGDC-OH) | – | – | –
26 | 9 nM | O=C(O)CCNC(=O)C1CCCN(C(=O)CCC2CCNCC2)C1 (centres undefined) | 91% | 89% | inhibition at 1 µM (Homo sapiens [6]): 89%; inhibition at 0.1 µM [7]: 4%; IC50 (Homo sapiens [8]): 140 nM
27 | 28 nM | CC(C)(C)OC(=O)N[C@@H](CCCCN)C(=O)N1CCC[C@H](C(=O)NCCC(=O)O)C1 | 91% | 87% | inhibition at 1 µM (Homo sapiens [6]): 11%
28 | 20000 nM | CC(C)(C)OC(=O)N[C@@H](CCCCNC(=O)OCc1ccccc1)C(=O)N1CCC[C@@H](C(=O)NCCC(=O)O)C1 | – | – | –
29 | 29 nM | COC(=O)[C@H](CC(=O)O)NC(=O)C1CCCN(C(=O)[C@H](CCCCN)NC(=O)OC(C)(C)C)C1 (some centres undefined) | 87% | 32% | inhibition at 1 µM (Homo sapiens [6]): 2%; IC50 (Homo sapiens [8]): 2630 nM
30 | 29 nM | CC(C)(C)OC(=O)N[C@@H](CCCCN)C(=O)N1CCCC(C(=O)NCCC(=O)O)C1 (some centres undefined) | 88% | 87% | inhibition at 1 µM (Homo sapiens [6]): 21%; IC50 (Homo sapiens [8]): 350 nM
